Reference: patent US20050215635A1, “Diarylheptanoid compounds and uses thereof” (priority 2004, published 2005)

Assays:
COX-2 protein expression = test: Western blotting of COX-2 protein expression in RAW 264.7 cells; assay type: cell-based, mouse; conditions: HMP 12.5 and 25 μM + LPS (0.5 μg/ml), RAW 264.7, 18 hrs
Description: FIG. 3. Inhibition of LPS induced iNOS and COX-2 protein expression by HMP. RAW 264.7 cells were treated with various concentrations of HMP and/or LPS (0.5 μg/ml) for 18 h. Total-cell lysate (40 μg) was resolved in 8-10% SDS-PAGE then transferred to PVDF membrane and detected with specific antibodies as described in Section 6. This experiment was repeated 4 times with similar observations. Lane-1, Control (without any treatment); 2, LPS (0.5 μg/ml); 3, LPS and HMP 25 μM; 4, LPS and HMP-12.5 μM.
At indicated time points, cells were rapidly washed with ice-cold PBS and solubilized in cold lysis buffer containing 10 mM Tris-base, 5 mM EDTA, 50 mM NaCl, 1% Triton X-100, 5 mM phenylmethylsulfonyl fluoride (PMSF), 2 mM sodium orthovanadate, 10 μg/ml leupeptin, 25 μg/ml aprotinin, 1 mM sodium pyrophosphate, and 20% glycerol. […]
Equal amount of protein (40 μg) from each sample was loaded on SDS-polyacrylamide electrophoresis gel (8 and 10% separating gels for iNOS and p42/44^MAPK, respectively) and resolved for 1.5 h at 120 V in buffer containing 95 mM Tris-HCl, 960 mM glycine, and 0.5% SDS. […] Specific bands were detected by enhanced chemiluminescence's detection system (Amersham-Pharmacia biotech, NJ, USA) and the membrane was exposed to X-ray film. […]

COX-2 mRNA expression = test: Relative RT-PCR of COX-2 mRNA expression in RAW 264.7 cells; assay type: cell-based, mouse; conditions: RAW 264.7, 12 hrs
Description: FIG. 4A and B: Effect of HMP on mRNA expression of iNOS and COX-2. Fig. A, RAW 264.7 cells were incubated in the presence of LPS (0.5 μg/ml) with or without HMP (12.5, 25 μM) for 12 hrs. Total RNA isolated from RAW 264.7 cells after 12 hrs of treatments with LPS alone or with various concentration of HMP was reverse transcribed to make cDNA and 2 μl (for iNOS) or 1 μl (for COX-2) of cDNA was amplified using gene specific primer (Ambion Inc). Ten μl of each PCR reaction was resolved in 2% agarose gel. Lane 1, control; 2. LPS (0.5 μg/ml); 3, LPS+HMP (12.5 μM) and Lane, 4 LPS+HMP (25 μM). Fig. B, Histogram showing densitometric analysis of iNOS and COX-2 mRNA expression. […] This experiment was repeated 3 times separately with similar observation.
The RAW 264.7 cells were cultured (10^6/well) in 6 well plate for 24 hrs and then medium was replaced by fresh medium and different concentrations of HMP either alone or in combination of LPS was added and further cultured for 12 hrs. […] Linear range of amplification of iNOS and COX-2 cDNA (2 μl for COX-2 and 1μl for iNOS of RT reaction mixture) was determined using gene specific primers from Ambion Inc (TX, USA), following manufacturer's instruction. The optimum amount of 18S primer and competitor for iNOS and COX-2 gene were also determined as per manufacturer's instruction. […]

COc1cc(CC/C=C/C(=O)CCc2ccccc2)ccc1O [AO-4, 7-(4″-hydroxy-3″-methoxyphenyl)-1-phenyl-hept-4-en-3-one]
LPS induced COX-2 protein expression (Western blot, in words) (COX-2 protein expression): markedly inhibited
inhibition of LPS induced COX-2 mRNA expression (densitometry, ratio to 18 S RNA) (COX-2 mRNA expression; HMP 12.5 μM + LPS (0.5 μg/ml)): 27.3%
inhibition of LPS induced COX-2 mRNA expression (densitometry, ratio to 18 S RNA) (COX-2 mRNA expression; HMP 25 μM + LPS (0.5 μg/ml)): 54.6%
